Test results published in patent EP3345917A1, “ANTIPROTOZOAL COMPOUNDS” (Bacoba AG, priority 2017, dated 2018).
Non-standard residues stand in square brackets, D forms with d. Residues, ends and D or L forms follow the SMILES beside them. *: point of attachment. Benzenesulfonyl(4-F) = O=S(=O)(c1ccc(F)cc1)*; NH((S)CH(Me)CH2NMe2) = C[C@@H](CN(C)C)N*; Gly(octyl) = CCCCCCCC[C@H](N)C(=O)O; hCha = N[C@@H](CCC1CCCCC1)C(=O)O; X3 = O=C(c1coc(-c2ccccc2)n1)*; X5 = CN(C)[C@H]1CCCC[C@@H]1N*; NH(CH2)3NMe2 = CN(C)CCCN*; X8 = C[C@@H](CN1CCCCC1)N*; Hexanoyl = CCCCCC(=O)*; Aib = CC(C)(N)C(=O)O; X7 = CN(C)CC(C)(C)N*; X6 = CCCN(CCC)CCN*; X9 = c1ccn(CCN*)c1; βAla = NCCC(=O)O

Assays:
[1] = tested on: Trypanosoma brucei rhodesiense (STIB 900 strain); experiment: Alamar Blue assay against Trypanosoma brucei rhodesiense grown in axenic medium; assay type: cell-based; settings: In vitro inhibition, read-out: T.b.rhod.
Method in brief: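 Alamar Blue-based IC50 determination, in triplicate, on axenically grown STIB 900 trypanosomes. Melarsoprol included as reference.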

[2] = tested on: Trypanosoma cruzi trypomastigote forms (Tulahuen strain); experiment: Intracellular Trypanosoma cruzi assay in L6-cells, beta-galactosidase/CPRG readout; assay type: cell-based; settings: In vitro inhibition, read-out: T.cruzi.
Method in brief: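 Readout was β-galactosidase cleavage of CPRG, read photometrically at 540 nm after 2–6 h colour development, giving IC50 values. Parasites: LacZ-expressing Tulahuen C2C4 strain grown in rat L6 myoblasts; run in triplicate.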

[3] = tested on: Axenically grown Leishmania donovani amastigotes (strain MHOM/ET/67/L82); experiment: Axenic Leishmania donovani amastigote resazurin assay; assay type: cell-based; settings: In vitro inhibition, read-out: L.don. ax
Method in brief: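 IC50 values derive from resazurin fluorescence (ex 536 nm, em 588 nm), expressed relative to the negative control, after 2-4 hours of plate development. Axenic amastigotes of strain MHOM/ET/67/L82 were used; each test run in triplicate.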

[4] = tested on: intracellular Leishmania donovani (L.don. InMac); experiment: Intracellular Leishmania donovani assay (L.don. InMac); assay type: cell-based; settings: In vitro inhibition
Text: (§1) Tests were done in triplicate.

[5] = tested on: Plasmodium falciparum; experiment: 3H-hypoxanthine incorporation assay against Plasmodium falciparum; assay type: cell-based; settings: In vitro inhibition, read-out: P.falc NF5
Method: as §1
IC50 values were calculated by linear interpolation.

[6] = Cytotoxicity assay on L6-cells (Alamar Blue); settings: rat, Cytotox L6, Cytotoxicity against rat myoblast cells (L6)

Structure (SMILES)	IC50 [1] [µM]	IC50 [2] [µM]	IC50 [3] [µM]	IC50 [4] [µM]	IC50 [5] [µM]	IC50 at 70 h [6] [µM]
CCCCCCCC[C@H](NC(=O)[C@@H]1CCCN1C(=O)CCCCC)C(=O)N[C@@H](CC(C)C)C(=O)NC(C)(C)C(=O)N[C@@H](CC(C)C)C(=O)N[C@@H](CC(C)C)C(=O)NC(C)(C)C(=O)NC(C)(C)C(=O)NCCC(=O)N[C@H]1CCCC[C@@H]1N(C)C [Compound 5883, (2S)-N-[(1S)-1-[(1-{[(1S)-1-{[(1S)-1-{[1-({1-[(2-{[(1S,2S)-2-(dimethylamino)cyclohexyl]carbamoyl}ethyl)carbamoyl]-1-methylethyl}carbamoyl)-1-methylethyl]carbamoyl}-3-methylbutyl]carbamoyl}-3-methylbutyl]carbamoyl}-1-methylethyl)carbamoyl]-3-methylbutyl]-2-{[(2S)-1-hexanoylpyrrolidin-2-yl]formamido}decanamide] (Hexanoyl-P[Gly(octyl)]L[Aib]LL[Aib][Aib][βAla]-X5)	41.3	0.46	19.8	0.131	25.3	1.48
CCCCCCCC[C@H](NC(=O)[C@@H]1CCCN1C(=O)CCCCC)C(=O)N[C@@H](CC(C)C)C(=O)NC(C)(C)C(=O)N[C@@H](CC(C)C)C(=O)N[C@@H](CC(C)C)C(=O)NC(C)(C)C(=O)NC(C)(C)C(=O)NCCC(=O)N[C@@H](C)CN1CCCCC1 [Compound 5886, (2S)-2-{[(2S)-1-hexanoylpyrrolidin-2-yl]formamido}-N-[(1S)-3-methyl-1-[(1-methyl-1-{[(1S)-3-methyl-1-{[(1S)-3-methyl-1-{[1-methyl-1-({1-methyl-1-[(2-{[(2S)-1-(piperidin-1-yl)propan-2-yl]carbamoyl}ethyl)carbamoyl]ethyl}carbamoyl)ethyl]carbamoyl}butyl]carbamoyl}butyl]carbamoyl}ethyl)carbamoyl]butyl]decanamide] (Hexanoyl-P[Gly(octyl)]L[Aib]LL[Aib][Aib][βAla]-X8)	0.496	4.26	0.19	0.602	36.1	0.938
CCCCCCCC[C@H](NC(=O)[C@@H]1CCCN1C(=O)CCCCC)C(=O)N[C@@H](CC(C)C)C(=O)NC(C)(C)C(=O)N[C@@H](CC(C)C)C(=O)N[C@@H](CC(C)C)C(=O)NC(C)(C)C(=O)NC(C)(C)C(=O)NCCC(=O)NCCn1cccc1 [Compound 5887, (2S)-2-{[(2S)-1-hexanoylpyrrolidin-2-yl]formamido}-N-[(1S)-3-methyl-1-[(1-methyl-1-{[(1S)-3-methyl-1-{[(1S)-3-methyl-1-{[1-methyl-1-({1-methyl-1-[(2-{[2-(1H-pyrrol-1-yl)ethyl]carbamoyl}ethyl)carbamoyl]ethyl}carbamoyl)ethyl]carbamoyl}butyl]carbamoyl}butyl]carbamoyl}ethyl)carbamoyl]butyl]decanamide] (Hexanoyl-P[Gly(octyl)]L[Aib]LL[Aib][Aib][βAla]-X9)	46.8	0.262	35.5	0.0417	42.7	0.479
CCCCCCCC[C@H](NC(=O)[C@@H]1CCCN1C(=O)CCCCC)C(=O)N[C@@H](CC(C)C)C(=O)NC(C)(C)C(=O)N[C@@H](CC(C)C)C(=O)N[C@@H](CC(C)C)C(=O)NC(C)(C)C(=O)NC(C)(C)C(=O)NCCC(=O)NCCN(CCC)CCC [Compound 5888, (2S)-N-[(1S)-1-[(1-{[(1S)-1-{[(1S)-1-{[1-({1-[(2-{[2-(dipropylamino)ethyl]carbamoyl}ethyl)carbamoyl]-1-methylethyl}carbamoyl)-1-methylethyl]carbamoyl}-3-methylbutyl]carbamoyl}-3-methylbutyl]carbamoyl}-1-methylethyl)carbamoyl]-3-methylbutyl]-2-{[(2S)-1-hexanoylpyrrolidin-2-yl]formamido}decanamide] (Hexanoyl-P[Gly(octyl)]L[Aib]LL[Aib][Aib][βAla]-X6)	18	0.0375	22.7	0.0148	35.9	0.446
CCCCCCCC[C@H](NC(=O)[C@@H]1CCCN1C(=O)CCCCC)C(=O)N[C@@H](CC(C)C)C(=O)NC(C)(C)C(=O)N[C@@H](CC(C)C)C(=O)N[C@@H](CC(C)C)C(=O)NC(C)(C)C(=O)NC(C)(C)C(=O)NCCC(=O)NC(C)(C)CN(C)C [Compound 5889, (2S)-N-[(1S)-1-[(1-{[(1S)-1-{[(1S)-1-{[1-({1-[(2-{[1-(dimethylamino)-2-methylpropan-2-yl]carbamoyl}ethyl)carbamoyl]-1-methylethyl}carbamoyl)-1-methylethyl]carbamoyl}-3-methylbutyl]carbamoyl}-3-methylbutyl]carbamoyl}-1-methylethyl)carbamoyl]-3-methylbutyl]-2-{[(2S)-1-hexanoylpyrrolidin-2-yl]formamido}decanamide] (Hexanoyl-P[Gly(octyl)]L[Aib]LL[Aib][Aib][βAla]-X7)	0.0159	0.248	11.1	0.0865	0.199	0.959
CCCCCCCC[C@H](NC(=O)[C@@H]1CCCN1C(=O)CCCCC)C(=O)N[C@@H](CC(C)C)C(=O)NC(C)(C)C(=O)N[C@@H](CC(C)C)C(=O)N[C@@H](CC(C)C)C(=O)NC(C)(C)C(=O)NC(C)(C)C(=O)NCCC(=O)NCCCN(C)C [Compound 5890, (2S)-N-[(1S)-1-[(1-{[(1S)-1-{[(1S)-1-{[1-({1-[(2-{[3-(dimethylamino)propyl]carbamoyl}ethyl)carbamoyl]-1-methylethyl}carbamoyl)-1-methylethyl]carbamoyl}-3-methylbutyl]carbamoyl}-3-methylbutyl]carbamoyl}-1-methylethyl)carbamoyl]-3-methylbutyl]-2-{[(2S)-1-hexanoylpyrrolidin-2-yl]formamido}decanamide] (Hexanoyl-P[Gly(octyl)]L[Aib]LL[Aib][Aib][βAla]-{NH(CH2)3NMe2})	44.2	0.044	0.0007	42.5	0.0002	0.593
CCCCCCCC[C@H](NC(=O)[C@@H]1CCCN1S(=O)(=O)c1ccc(F)cc1)C(=O)N[C@@H](CC(C)C)C(=O)NC(C)(C)C(=O)N[C@@H](CC(C)C)C(=O)N[C@@H](CC(C)C)C(=O)NC(C)(C)C(=O)NC(C)(C)C(=O)NCCC(=O)N[C@@H](C)CN(C)C [Compound 5935, (2S)-N-[(1S)-1-[(1-{[(1S)-1-{[(1S)-1-{[1-({1-[(2-{[(2S)-1-(dimethylamino)propan-2-yl]carbamoyl}ethyl)carbamoyl]-1-methylethyl}carbamoyl)-1-methylethyl]carbamoyl}-3-methylbutyl]carbamoyl}-3-methylbutyl]carbamoyl}-1-methylethyl)carbamoyl]-3-methylbutyl]-2-{[(2S)-1-(4-fluorobenzenesulfonyl)pyrrolidin-2-yl]formamido}decanamide] ({Benzenesulfonyl(4-F)}-P[Gly(octyl)]L[Aib]LL[Aib][Aib][βAla]-{NH((S)CH(Me)CH2NMe2)})	42.4	0.0335	14.5	< 0.0335	47.3	0.384
CCCCCC(=O)N1CCC[C@H]1C(=O)N[C@@H](CCC1CCCCC1)C(=O)N[C@@H](CC(C)C)C(=O)NC(C)(C)C(=O)N[C@@H](CC(C)C)C(=O)N[C@@H](CC(C)C)C(=O)NC(C)(C)C(=O)NC(C)(C)C(=O)NCCC(=O)N[C@@H](C)CN(C)C [Compound 5942, (2S)-2-[(2S)-4-cyclohexyl-2-{[(2S)-1-hexanoylpyrrolidin-2-yl]formamido}butanamido]-N-(1-{[(1S)-1-{[(1S)-1-{[1-({1-[(2-{[(2S)-1-(dimethylamino)propan-2-yl]carbamoyl}ethyl)carbamoyl]-1-methylethyl}carbamoyl)-1-methylethyl]carbamoyl}-3-methylbutyl]carbamoyl}-3-methylbutyl]carbamoyl}-1-methylethyl)-4-methylpentanamide] (Hexanoyl-P[hCha]L[Aib]LL[Aib][Aib][βAla]-{NH((S)CH(Me)CH2NMe2)})	0.0003	0.004	42.6	< 0.0354	0.0009	0.148
CCCCCCCC[C@H](NC(=O)c1coc(-c2ccccc2)n1)C(=O)N[C@@H](CC(C)C)C(=O)NC(C)(C)C(=O)N[C@@H](CC(C)C)C(=O)N[C@@H](CC(C)C)C(=O)NC(C)(C)C(=O)NC(C)(C)C(=O)NCCC(=O)N[C@@H](C)CN(C)C [Compound 5943, (2S)-N-[(1S)-1-[(1-{[(1S)-1-{[(1S)-1-{[1-({1-[(2-{[(2S)-1-(dimethylamino)propan-2-yl]carbamoyl}ethyl)carbamoyl]-1-methylethyl}carbamoyl)-1-methylethyl]carbamoyl}-3-methylbutyl]carbamoyl}-3-methylbutyl]carbamoyl}-1-methylethyl)carbamoyl]-3-methylbutyl]-2-[(2-phenyl-1,3-oxazol-4-yl)formamido]decanamide] (X3-[Gly(octyl)]L[Aib]LL[Aib][Aib][βAla]-{NH((S)CH(Me)CH2NMe2)})	0.0005	0.156	18.7	< 0.0361	0.0153	0.552
